Assay results published in patent publication US20220241266A1, “COMPOSITIONS AND METHODS USING TRIGONELLINE AND HIGH PROTEIN FOR PREVENTING OR TREATING CONDITIONS OR DISORDERS IN SKELETAL MUSCLE” (SOCIETE DES PRODUITS NESTLE S.A., priority 2019, published 2022).

Columns and labels:
[1] = system: Human Skeletal Muscle Myotubes (HSMM); assay: Colorimetric NAD+ quantification in differentiated human primary myoblasts; format: cell-based; details: 16 h, different doses
Procedure: After one day, the differentiation is induced by a medium change for 4 days. Cells were treated with synthetic trigonelline monohydrate (FIG. 4A) or with Fenugreek seed extract enriched in trigonelline containing 40.45% trigonelline (FIG. 4B) for 16 h at difference doses. NAD^+ was measured using colorimetric NAD^+ quantification assay (Biovision NAD^+/NADH Quantitation Colorimetric Kit #k337-100).

C57BL/6JRj male mice = assay: Liver NAD+ in mice after oral gavage; format: in vivo; details: equimolar of 300 mg/kg trigonelline, 120 minutes
Procedure: FIG. 5—Liver NAD^+ levels of C57BL/6JRj mice measured 120 minutes after administration of 300 mg/kg trigonelline chloride or an equimolar amount of fenugreek seed extract by oral gavage
10 weeks C57BL/6JRj male mice received trigonelline (sigma #T5509) or fenugreek seed extract enriched in trigonelline (40.45% trigonelline) by oral gavage (equimolar of 300 mg/kg trigonelline, n=8/group). After 120 minutes treatment, the liver was harvested and flash frozen in liquid nitrogen. NAD^+ was measured in liver using an enzymatic method adapted from Dall, M., et al., Mol Cell Endocrinol, 2018. 473: p. 245-256.

[2] = system: Human Skeletal Muscle Myotubes (HSMM); details: 6 h, 500 μm
Procedure: Human primary myoblasts from two different donors were seeded in 6 well plates at a density of 200,000 cells per well in skeletal muscle growth medium (SKM-M, AMSbio). After one day, the differentiation was induced by a medium change for 4 days using differentiation culture medium (Gibco No. 31330-028). Cells were treated with isotopically labelled trigonelline (^13C carbonyl; 3^2H on methyl) for 6 h.
Cell extracts were separated on a Vanquish UHPLC+focused LC system (Thermo Scientific) with a hydrophilic liquid chromatography (HILIC) iHILIC-Fusion(P) column (Hilicon) carrying the dimensions 150×2.1 mm, 5 μm and a guard column (iHILIC-fusion(P), Hilicon) in front. The separation of metabolites was achieved by applying a linear solvent gradient in normal phase at 0.25 mL/min flow rate and 35° C. of temperature. As mobile phase, solvent A was water with 10 mM ammonium acetate and 0.04% (v/v) ammonium hydroxide, pH ˜9.3, and solvent B was acetonitrile.
The eluting metabolites were analyzed with an Orbitrap Fusion Lumos mass spectrometer (Thermo Scientific) with a heated electrospray ionization (H-ESI) source in positive and negative mode at a resolution of 60,000 at m/z of 200. Instrument control and data analysis were conducted using Xcalibur (Thermo Scientific).

C. elegans [3] = details: 1 mM, chronic exposure from Day 1 adulthood
Procedure: Worm lifespan tests were performed using about 100 animals per condition and scored manually every other day. Trigonelline treatment and experimental measurements were started at Day 1 of wild type N2 worm adulthood, in a regimen of chronic exposure till experiments termination.

C. elegans [4] = details: 1 mM, vs control
Procedure: C. elegans mobility test was performed using the Movement Tracker software (Mouchiroud, L. et al. Curr Protoc Neurosci 77, 8.37.1-8.37.21 (2016)). The experiments were repeated at least twice. Trigonelline treatment and experimental measurements were started at Day 1 of wild type N2 worm adulthood, in a regimen of chronic exposure till experiments termination.

C. elegans [5] = details: 1 mM, day 8 and day 11 old worms, vs control
Source text: 45 to 60 worms per condition were manually scored for mobility after poking. Worms that were unable to respond to any repeated stimulation were scored as dead. […] Trigonelline treatment and experimental measurements were started at Day 1 of wild type N2 worm adulthood, in a regimen of chronic exposure till experiments termination.

[6] = system: RW1596 (myo-3p::GFP) worms; details: 1 mM trigonelline chloride, 11 day old worms vs age matched control
Procedure: RW1596 (myo-3p::GFP) worms were collected at Day 1 (young adults) and at Day 11 (aged animals) for muscle integrity assessment. Worms were immobilized with tetramisole and analyzed by confocal microscopy, to assess the muscle fibers morphology shown by GFP fluorescence imaging. Trigonelline treatment with 1 mM trigonelline chloride and experimental measurements were started at Day 1 of wild type N2 worm adulthood, in a regimen of chronic exposure till experiments termination.

C. elegans [7] = details: 1 mM trigonelline chloride, day 8 old worms, vs control
Procedure: Absolute quantification of the mtDNA copy number in wild type N2 worms was performed by real-time PCR. Relative values for nduo-1, and act-1 were compared within each sample to generate a ratio representing the relative level of mitochondrial DNA per nuclear genome. The average of at least two technical repeats was used for each biological data point. Each experiment was performed on at least ten independent biological samples (individual worms). Trigonelline treatment with 1 mM trigonelline chloride and experimental measurements were started at Day 1 of wild type N2 worm adulthood, in a regimen of chronic exposure till experiments termination.

Question: For C[n+]1cccc(C(=O)[O-])c1 [chemically synthesized trigonelline, trigonelline monohydrate], which “NAD+ content compared to the control” value [1] is on record?
Answer: significant increase in NAD^+ content

Question: And the “NAD+ content in the liver compared to the control” value (C57BL/6JRj male mice)?
Answer: significant increase in NAD^+ content in the liver

Question: How did the “relative abundance of labelled NAD+ (M+1)” value ([2]; HSMM, vs naturally occurring NAD+ control) turn out when [2H]C([2H])([2H])[n+]1cccc([13C](=O)[O-])c1 [labelled trigonelline] was run?
Answer: increase in relative abundance of labelled NAD+ (M+1)

Question: What does the source list for C[n+]1cccc(C(=O)O)c1.[Cl-] [trigonelline chloride]?
Answer: increase of lifespan (C. elegans [3]): 21%; distance travelled during spontaneous mobility assay (C. elegans [4]; advanced aging phase): significantly increased; mean speed during spontaneous mobility assay (C. elegans [4]; from day 1 adulthood): increased the mean speed compared to the control; stimulated mobility score (worms responsive to a physical stimulus) (C. elegans [5]): more responsive to a physical stimulus than the control

Question: What does the source list for C[n+]1cccc(C(=O)[O-])c1 [trigonelline, 1-methylpyridin-1-ium-3-carboxylate]?
Answer: NAD+ relative concentration relative to control (LC-MS) ([2]; HSMM from 2 donors): enhancement of NAD+; myofibrillar structure (GFP-tagged myosin) [6]: improved more organized myofibrillar structure; ratio of mitochondrial-encoded gene (nduo-1) to nuclear-encoded gene (act-1) (C. elegans [7]): higher than in the control group
